Measured values as given in US10487362B2, “Methods for diagnosing cancer based on small nucleolar RNA HBII-52” (Health Research, Inc., priority 2013, dated 2019).
“Also recorded” adds a separate entry of the source.

Experiments:
TRAMP-C2G cells = test: Cell viability of TRAMP-C2G stable cell lines (Cell-Titer Fluor, 72 h growth assay); format: cell-based, mouse; conditions: 72 h culture; for influence on the effect of MBII-52 or SB 242,084 on cell viability: TRAMP-C2G cells
Description: FIG. 10. MBII-52 was stably overexpressed (>60-fold overexpression) in TRAMP-C2G cells from the pSilencer CMV 4.1 vector. Cell viability was measured (n=5, error bars are SEM) after 72 h culture using Cell-Titer Fluor cell viability assay and normalized to scramble-transfected, vehicle-treated control. One-sample t-tests were performed to compare experimental groups with scramble/vehicle control. Two-tailed t-tests were used to compare the two SB 242,084 treatment groups with each other. * indicated p<0.05 for either test. MBII-52 increases cell viability, while SB 242,084 inhibits it.
To test the hypothesis that HB/MBII-52 can activate 5-HT2cR and promote cancer progression stable cell lines were generated from TRAMP C2D and C2G cells that overexpress MBII-52 from pSilencer 4.1 CMV vector along with control cells expressing a scrambled RNA that has no homology to the mouse or human genome.
Numerous downstream pathways activated by 5-HT2cR have been studied in neuronal cell lines with a focus on neurological development and disease. The pathways relevant to this disclosure are Erk, PI3-K/Akt and RhoA (36,39). Each has previously been studied and targeted in PCa and other cancers. Activation of these pathways during PCa progression or in vitro can directly propagate a transition to malignancy. For example, Erk upregulates hypoxia inducible factor 1 alpha (HIF1α) and therefore vascular endothelial growth factor (Vegf) in response to hypoxia in rats (40). Vegf secretion also appears to be regulated by Erk in LNCaP cell lines (41). Erk is also able to transactivate the androgen receptor (AR) independent of androgen, by phosphorylating steroid receptor co-activator-1 (SRC-1), which then binds AR resulting in ligand-independent activation of AR. Therefore, Erk directly contributes to androgen-independence (41). […] Indeed, stable cell lines overexpressing MBII-52 appeared more proliferative then scramble control stable cell lines in a 72 h growth assay, after which viability was measured using Cell-Titer Fluor Assay (n=5) (FIG. 10).

DU145 clones DU6 and DU2 = test: Cell viability of DU145 HBII-52 clones in response to 5-HT; format: cell-based, human; conditions: high concentrations; HBII-52 overexpressing DU6 compared to low expressing DU2; 3 independent experiments
From the text: FIG. 17. Overexpression of HBII-52 affects cell viability in response to 5-HT treatment. […] Data are represented as the average+/−SEM of 3 independent experiments

MBII-52 = conditions: C2G cells, serum starvation 72 h, DHT supplementation
From the text: Serum starvation induces NED of PCa cell lines (25). […] Furthermore, NED is associated with CR-PCa in vivo, supporting the importance of factors that induce NED as initiators of transition to androgen-independence (26).

LNCaP-C4-2 cells = test: Growth inhibition under serum starvation, LNCaP-C4-2; format: cell-based, human; conditions: LNCaP-C4-2, serum starvation vs serum
From the text: (§1) FIG. 12. […] Data is representative of multiple independent experiments.
(§2) Our tests indicate that SB 242,084 is growth-inhibitory in human PCa cell lines (FIG. 11).

5-HT2cR [1] = molecular target: T1, 5-HT2cR (Homo sapiens, UniProt P28335); conditions: cited from earlier work
T1 sequence (P28335 33-458): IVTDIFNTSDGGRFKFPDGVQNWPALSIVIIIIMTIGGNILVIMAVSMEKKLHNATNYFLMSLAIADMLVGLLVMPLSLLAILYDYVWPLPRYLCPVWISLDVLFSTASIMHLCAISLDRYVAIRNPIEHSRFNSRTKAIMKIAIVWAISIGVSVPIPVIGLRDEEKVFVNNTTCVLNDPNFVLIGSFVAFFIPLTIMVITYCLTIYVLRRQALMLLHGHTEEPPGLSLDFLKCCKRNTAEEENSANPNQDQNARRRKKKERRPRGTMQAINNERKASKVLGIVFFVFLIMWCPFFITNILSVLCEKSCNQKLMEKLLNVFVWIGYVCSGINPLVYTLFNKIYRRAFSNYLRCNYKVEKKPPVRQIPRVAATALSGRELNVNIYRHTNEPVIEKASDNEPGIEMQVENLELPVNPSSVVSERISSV

5-HT2cR [2] = molecular target: T1, 5-HT2cR; conditions: in vitro and in vivo; cited from earlier work
[3] = compared with SB206,553; cited from earlier work
PC3 cells = test: Growth inhibition under serum starvation, PC3; format: cell-based, human; conditions: PC3, serum starvation vs serum
From the text: as §1, §2

[4] = system: Human Prostate cancer cell lines; test: Cell viability of human prostate cancer cell lines treated for 72 h; format: cell-based; conditions: 72 h treatment, 3 independent experiments
Description: FIG. 11. Human Prostate cancer cell lines were treated with SB 242,084 for 72 h. […] Data is the average of 3 independent experiments with error bars indicating SEM.
as §2

Erk = conditions: cited from earlier work

Structure (SMILES)	influence on the effect of MBII-52 or SB 242,084 on cell viability (TRAMP-C2G cells)	cytotoxic response (cell viability) (DU145 clones DU6 and DU2)	MBII-52 expression increase caused by serum starvation (MBII-52)	growth inhibition upon serum starvation (LNCaP-C4-2 cells)	potency relative to SB 206,553 (5-HT2cR [1])	selectivity for 5-HT2cR over 5-HT2aR (5-HT2cR [1])	selectivity for 5-HT2cR over 5-HT2bR (5-HT2cR [1])	antagonist activity (5-HT2cR [2])	resistance to metabolic methylation [3]	growth inhibition upon serum starvation (PC3 cells)	cell viability (TRAMP-C2G cells; scramble and MBII-52 overexpressing TRAMP-C2G cells, n=5)	cell viability / growth inhibition [4]	activation of downstream targets including Erk (Erk)
NCCc1c[nH]c2ccc(O)cc12 [5-HT, serotonin]	Neither DHT nor 5-HT appear to have much influence	increased cytotoxic response											
C[C@]12CCC(=O)C[C@@H]1CC[C@@H]1[C@@H]2CC[C@]2(C)[C@@H](O)CC[C@@H]12 [DHT, 5α-dihydrotestosterone]	Neither DHT nor 5-HT appear to have much influence		almost completely block the increase in MBII-52; also recorded: abrogates the observed upregulation of MBII-52										
Cc1cc2c(cc1Cl)N(C(=O)Nc1ccc(Oc3cccnc3C)nc1)CC2 [SB 242,084]				significantly (p<0.05) further improved	increased potency	greater than 100 fold	greater than 100 fold	potent antagonist activity	more resistant to the metabolic methylation than SB206,553	significantly (p<0.05) further improved	inhibits; also recorded: effective in both scramble and MBII-52 overexpressing cells	dose-dependent decrease in cell viability levels; also recorded: growth-inhibitory	inhibits activation
